# Results: patent publication US20230174472A1, “THERAPEUTIC USE OF PLEUROMUTILINS” (priority 2020, published 2023)
# Like-named read-outs stand apart in the source and are kept apart here.
# Legend:
# [1] = system: human rhinovirus strain HRV16 strain 11757; test: inhibition of virus-induced CPE, human rhinovirus in H1-HeLa cells; type: cell-based; conditions: Human rhinovirus sp., 4 hour pretreatment, MOI 0.0005, Lefamulin as acetate
# Method: (§1) Cell viability determination as well as EC50 and TC50 calculations were performed as described in Examples 6 and 8.
# [2] = system: human respiratory syncytial virus (strain RSVA2); test: inhibition of virus-induced CPE, RSVA2 in HEp2 cells (XTT); conditions: human respiratory syncytial virus
# in vitro [3] = conditions: dog
# in vitro [4] = conditions: human
# [5] = system: Dengue virus (strain DENV2New Guinea); test: inhibition of virus-induced CPE, Dengue virus in Huh7 cells; type: cell-based; conditions: Huh-7, 4 h pre-incubation
# Method: The Dengue virus strain DENV2New Guinea was obtained from ATCC (VR-1584) and was grown in Rhesus monkey kidney cells for the production of stock virus pools.
# as §1
# [6] = system: influenza A/Puerto Rico/8/34 (H1N1); type: in vivo, BALB/c mice
# [7] = system: mice challenged with lipopolysaccharide (LPS); test: LPS induced lung neutrophilia model, BALF cell counts 4 h post LPS (Example 1)
# [8] = system: alpha coronavirus 229E (HCoV-229E); test: inhibition of virus-induced CPE, CoV229E in MRC-5 cells (XTT); type: cell-based; conditions: for EC50: Human coronavirus 229E, MOI 0.001, read-out: EC50
# Method: The antiviral compound Remdesivir served as positive control.
# Lefamulin (as acetate) was evaluated using different treatment conditions of 4 h, 1 h or 0 h incubation prior to virus addition and addition 1 h after infection For this particular set of experiments, coronavirus was diluted 1:200 in assay medium and added at 100 μL/well to achieve approximately 90% cell killing in the untreated virus control wells (MOI of 0.001).
# [9] = system: Zika virus (strain ZIKVPRVABC59); test: inhibition of virus-induced CPE, Zika virus in Huh7 cells; type: cell-based; conditions: Huh-7, 4 hour pretreatment, MOI 0.001, Lefamulin as acetate
# Method: The Zika virus strain PRVABC59 obtained from ATCC (catalog VR-1843) […] was grown in Rhesus monkey kidney cells for the production of stock virus pools.
# as §1
# [10] = system: Measles virus (strain Edmonston); test: microbe, parasite or virus in culture; type: cell-based
# [11] = cell viability of uninfected HeLa cells; conditions: human
# [12] = system: mice challenged with lipopolysaccharide (LPS); test: LPS induced lung neutrophilia model, BALF cell counts (Example 2); conditions: 4 h post LPS
# MRC-5 cells = conditions: for cytotoxic effect on the viability of the cell control: Example 6
# [13] = system: human respiratory syncytial virus (strain RSVA2); conditions: Example 8
# [14] = cell viability of uninfected Huh7 cells; conditions: human
# HEp2 cells = test: cell viability of uninfected HEp2 cells (XTT); conditions: Example 8
# [15] = system: influenza virus (strain A/PR/8/34); test: inhibition of virus-induced CPE, influenza virus in MDCK cells; type: cell-based; conditions: unidentified influenza virus, PR/8, MDCK, read-out: maximum inhibition of the influenza mediated CPE
# [16] = system: TNF-α, IL-6, IL-1β, GM-CSF, CXCL1, CXCL2, CCL2, MMP9 in lung homogenate; test: LPS induced lung neutrophilia model, marker concentrations in lung homogenate (Example 2)
# HeLa cells = test: cell viability of uninfected HeLa cells; conditions: Example 11
# Huh7 cells = test: cell viability of uninfected Huh7 cells; conditions: Example 12 (Dengue assay)
# [17] = high dose: 105 mg/kg/day SC in three injections until day 3, then 70 mg/kg twice daily
# [18] = high dose, Day 6, vs vehicle treated control
# [19] = Lefamulin 35, 70 and 140 mg/kg SC half an hour prior to IN LPS, vs LPS challenge (p<0.05)
# [20] = 10, 30, or 100 mg/kg SC pre-treatment
# [21] = 10, 30, or 100 mg/kg SC pre-treatment, 4 h post LPS
smiles,measurement,setting,value
"C=C[C@]1(C)C[C@@H](OC(=O)CS[C@@H]2CC[C@@H](N)C[C@H]2O)[C@]2(C)C(C)CC[C@]3(CCC(=O)[C@H]32)[C@@H](C)[C@@H]1O (stereo partly drawn) [Lefamulin, 14-O-{[(1R, 2R, 4R)-4-amino-2-hydroxy-cyclohexylsulfanyl]-acetyl}-mutilin]",EC50,[1],9.34 µM
same,EC50,"[2]; HEp-2, Example 8, HEp2 cells, 4 h incubation prior to virus, MOI 0.001, 6 days post-infection, Lefamulin as acetate, Tiamulin as fumarate",5.34 µM
same,EC50,"[2]; HEp-2, Example 9, MOI 0.0004",2.34 µM
same,EC50,"[2]; HEp-2, Example 9, MOI 0.0008",28.7 µM
same,EC50,"[2]; HEp-2, Example 9, MOI 0.001",32.3 µM
same,EC50,"[2]; HEp-2, Example 9, MOI 0.003",> 63.2 µM
same,cytotoxicity,MDCK cells; 50 μM,cytotoxicity was observed
same,concentrations cytotoxic to MDCK cells,MDCK cells; Example 15,greater than 23 μM
same,CC50,in vitro [3],23.8 µM
same,CC50,in vitro [4],24.1 µM
same,EC50,"[5]; MOI 0.001, Lefamulin as acetate",6.79 µM
same,B cells (BALF),[6]; Day 6,reduction was only significant at the highest dose
same,infiltration of CD4 cells in the lung,"[6]; Day 6, both doses tested",decreased
same,infiltration of CD8 cells in the lung,"[6]; Day 6, both doses tested",decreased
same,infiltration of NK cells in the lung,"[6]; Day 6, both doses tested",decreased
same,neutrophils infiltration (BALF),"[6]; Day 6, both doses tested",significantly decreased
same,total immune cell infiltration in the lung (BALF flow cytometry),"[6]; Day 6, both doses tested, p<0.05",significantly decreased
same,inflammatory monocyte infiltration in the lung,"[6]; Day 6, higher dose",significantly reduced
same,lung viral titres (TCID50 on MDCK cells),"[6]; Lefamulin at both doses, Oseltamivir positive control, Day 3 and Day 6, vs vehicle treated control",reduced
same,bodyweight,[6]; at the investigated doses (low and high dose SC),did not have a significant effect
same,clinical scores compared to vehicle,[6]; [17],increase
same,survival compared to vehicle,[6]; [17],decrease
same,alveolar inflammation (histopathology),[6]; [18],significant reduction
same,bronchial degeneration (histopathology),[6]; [18],significant reduction
same,overall histopathology score,[6]; [18],significant reduction
same,macroscopically evaluated lung consolidation,"[6]; low dose: 35 mg/kg SC twice daily, Day 6",significant improvement
same,survival until day 6,"[6]; lower dose: 35 mg/kg SC twice daily, Day -1 to Day 6",90%
same,neutrophil cell count in BALF,[7]; [19],statistically significant reduction
same,total cell count in BALF,[7]; [19],statistically significant reduction
same,cell influx (BALF),[7]; highest dose of 140 mg/kg SC,Almost complete impairment
same,reduction of viral CPE,[8]; 10 µM,91.82%
same,reduction of viral CPE,"[8]; 1 h, 50 µM",86.83%
same,EC50,"[8]; MRC5, 1 h, Example 7, 1 h post-infection",15.1 µM
same,EC50,"[8]; MRC5, Example 6, MRC-5 cells, 4 h incubation prior to virus, 6 days post-infection, Lefamulin as acetate, Tiamulin as fumarate",3.87 µM
same,EC50,"[8]; MRC5, Example 7, 0 h pretreatment",3.08 µM
same,EC50,"[8]; MRC5, Example 7, 1 h pretreatment",2.16 µM
same,EC50,"[8]; MRC5, Example 7, 4 h pretreatment",2.18 µM
same,EC50,[9],2.78 µM
same,EC50,"[10]; Measles morbillivirus, HeLa",0.89 µM
same,CC50 at 6 days,[11],72.7 µM
same,"total cell counts in BALF, significance of change","[12]; 100 mg/kg SC, p<0.05",statistically significant
same,total cell counts in BALF,"[12]; 10, 30, or 100 mg/kg SC 30 min before LPS",reduced dose-dependently
same,lymphocyte cell counts in BALF,"[12]; 10, 30 and 100 mg/kg SC",not significantly affected
same,macrophage cell counts in BALF,"[12]; 10, 30 and 100 mg/kg SC",not significantly affected
same,neutrophil cells in BALF,"[12]; 10, 30 and 100 mg/kg SC",dose-dependent and significant reduction
same,cytotoxic effect on the viability of the cell control,MRC-5 cells; 10 μM,no cytotoxic effect
same,cytotoxic effect on the viability of the cell control,MRC-5 cells; 50 μM,cytotoxic effect
same,CC50,"MRC-5 cells; human, 6 days",> 50 µM
same,reduction of viral CPE,[13]; 10 μM,92.17%
same,reduction of viral CPE,[13]; 50 μM,100%
same,CC50 at 6 days,"[14]; TC50, Example 12 (Dengue assay)",23.3 µM
same,CC50 at 6 days,"[14]; TC50, Example 13 (Zika assay)",23.4 µM
same,cytotoxic effect on the viability of the cell control,HEp2 cells; 10 μM and 50 μM,no cytotoxic effect
same,cytotoxic effect on the viability of the cell control,HEp2 cells; 100 μM,cytotoxic effect
same,inhibition at 5 µM,[15],18.4%
same,MMP9 concentrations in lung homogenate,[16]; 10 mg/kg SC,did not alter
same,reduction of MMP9 levels in lung homogenate,[16]; 30 mg/kg SC,26%
same,reduction of MMP9 levels in lung homogenate,[16]; 100 mg/kg SC,53%
same,reduction of IL-1β level in lung homogenate,[16]; 100 mg/kg SC pre-treatment,24%
same,CXCL1 level in lung homogenate,[16]; [20],significantly reduced
same,CXCL2 level in lung homogenate,[16]; [20],significantly reduced
same,reduction of IL-6 level in lung homogenate,[16]; [21],≥ 50%
same,reduction of TNF-α level in lung homogenate,[16]; [21],≥ 50%
same,GM-CSF in lung homogenate,"[16]; all doses tested (10, 30, 100 mg/kg SC)",almost completely inhibited
same,LPS-induced CCL2 increase in the lung homogenate,"[16]; all investigated doses (10, 30, 100 mg/kg SC), Valnemulin particularly at 10 and 30 mg/kg",completely inhibited
"NC(=O)c1ncn([C@@H]2O[C@H](CO)[C@@H](O)[C@H]2O)n1 [Ribavirin, reference compound]",EC50,[5]; MOI 0.001,4.73 µg/mL
same,EC50,"[10]; HeLa cells, 4 h pre-incubation, MOI 0.008",1.88 µg/mL
same,TC50,HeLa cells,21.6 µg/mL
same,TC50,Huh7 cells,48.5 µg/mL
